We go through nine compounds from patent US11098059B2, “PRMT5 inhibitors” (Merck Sharp & Dohme Corp., priority 2017, dated 2021).

The target of experiment [1] is Full-length (FL)-PRMT5-MEP50 enzyme complex (Homo sapiens (Human), UniProt O14744). As to the kind of experiment: PRMT5-MEP50 Enzyme Methylation Assay. For Enzyme Methylation Assay IC50 1: top concentration 100000 nM. It is filed as biochemical. The procedure: PRMT5-MEP50 Enzyme Methylation Assay
PRMT5/MEP50 biochemical assay is a direct measurement of the methylation activity of the enzyme complex on a short peptide substrate derived from the N-terminus of H4 histone. The methylation experiment is performed with recombinant protein. The assessment of inhibitory effect (IC50) of small molecules is measured by the effectiveness of the compounds to inhibit this reaction.
To each well of a white ProxiPlus 384 well-plate, 100 nL of compound (1% DMSO in final assay volume of 10 μL) was dispensed, followed by the addition of 8 μL of 1× assay buffer (50 mM Bicine pH 8.0, 1 mM DTT, 0.004% Tween20, 0.01% BSA) containing 0.5 nM of Full-length (FL)-PRMT5-MEP50 enzyme complex (recombinant proteins from baculovirus-transfected Sf21 cells: FL-PRMT5; MW=[…] and FL-MEP50; MW=38614). Plates were sealed and placed in a 37° C. humidified chamber for 30 minutes pre-incubation with compounds. Subsequently, each reaction was initiated by the addition of 2 μL 1× assay buffer containing 75 nM biotinylated H4R3(Me1) peptide, and 15 μM S-(5′-Adenosyl)-L-Methionine Chloride (SAM). The final reaction in each well of 10 μL consists of 0.5 nM PRMT5-MEP50, 75 nM biotinylated-peptide, and 15 μM SAM. Methylation reactions were allowed to proceed for 150 minutes in a sealed plate at 37° C. Reactions were immediately quenched by the addition of 1 μL of 10% formic acid. Plates were then frozen and shipped to SAMDI™ Tech Inc. to determine the percent conversion from […]. IC50 values were determined by 7 parameters biphasic fit model plotting the percent product conversion vs. (Log10) compound concentrations.

A further experiment addresses PRMT5 (Homo sapiens (Human), UniProt O14744). Nature of the experiment: PRMT5 Cell Target Engagement (TE) Assay. It is filed as cell-based. The following applies: treated 3 days, nuclear SDMA by high content imaging, top concentration 10000 nM. An excerpt:
PRMT5 Cell Target Engagement (TE) Assay
The PRMT5 TE assay is a biomarker assay for identifying compounds that inhibit symmetric dimethylation of arginine (SDMA) of PRMT5 substrates. This assay detects symmetrically dimethylated nuclear proteins using high content imaging technology. Detection of the expression of symmetrically dimethylated nucleo proteins is through a mixture of primary rabbit monoclonal antibodies to SDMA (CST 13222), which in turn recognized by an Alexafluor 488 dye-conjugated anti-rabbit IgG secondary antibody. The IN Cell Analyzer 2200 measures nuclear Alexafluor 488 fluorescent dye intensity that is directly related to the level of expression of symmetrically dimethylated nuclear proteins at the single cell level. Nuclear AF488 dye intensities are compared to the mean value for DMSO treated cells […] to report percent of inhibition for each compound-treated well.
Each well of a BD falcon collagen coated black/clear bottom 384-well plate was seeded with 4000 MCF-7 cells and allowed to attach for 5 hours. Media from cell plate was removed at 0.5 mm above the bottom of the plate and replaced with 30 μL of fresh media containing 1.2× compounds in 0.1% DMSO. Cells were treated for 3 days in 37° C. CO2 incubator. On day 3, cells were fixed with Cytofix, permeablized with 0.4% Triton-X-100/Cytofix, and washed with D-PBS without Ca/Mg. Cells were blocked with Licor Odessey blocking reagent for one hour at room temperature, followed by incubation with anti-SDMA (1:1000) antibody at 4° C. overnight. 1 antibody was removed, followed by three washings with DPBS without Ca/Mg and 0.05% Tween20. Hoechst (5 μg/ml), Cell Mask deep stain (1:2000) and Alexa488-conjugated goat anti-rabbit IgG (2 μg/mL) was added for 1 hour at room temperature. A final washing step (three washes) was performed before sealing plate for imaging on In Cell Analyzer 2200. Images from analyzer were uploaded to Columbus (at WP) for image analysis. IC50 values were determined by 4 parameters robust fit of percent fluorescence units vs. (Log10) compound concentrations.

[2] abbreviates: read-out: Enzyme Methylation Assay IC50_1.
Where [3] appears, read: read-out: Enzyme Methylation Assay IC50_2.
The mark [4] stands for this setting: MCF-7 cells, read-out: TE Assay EC50.

Structures are written as SMILES. Where two headings read alike, the source gives them in different places.

Chain of PRMT5 (O14744 whole entry): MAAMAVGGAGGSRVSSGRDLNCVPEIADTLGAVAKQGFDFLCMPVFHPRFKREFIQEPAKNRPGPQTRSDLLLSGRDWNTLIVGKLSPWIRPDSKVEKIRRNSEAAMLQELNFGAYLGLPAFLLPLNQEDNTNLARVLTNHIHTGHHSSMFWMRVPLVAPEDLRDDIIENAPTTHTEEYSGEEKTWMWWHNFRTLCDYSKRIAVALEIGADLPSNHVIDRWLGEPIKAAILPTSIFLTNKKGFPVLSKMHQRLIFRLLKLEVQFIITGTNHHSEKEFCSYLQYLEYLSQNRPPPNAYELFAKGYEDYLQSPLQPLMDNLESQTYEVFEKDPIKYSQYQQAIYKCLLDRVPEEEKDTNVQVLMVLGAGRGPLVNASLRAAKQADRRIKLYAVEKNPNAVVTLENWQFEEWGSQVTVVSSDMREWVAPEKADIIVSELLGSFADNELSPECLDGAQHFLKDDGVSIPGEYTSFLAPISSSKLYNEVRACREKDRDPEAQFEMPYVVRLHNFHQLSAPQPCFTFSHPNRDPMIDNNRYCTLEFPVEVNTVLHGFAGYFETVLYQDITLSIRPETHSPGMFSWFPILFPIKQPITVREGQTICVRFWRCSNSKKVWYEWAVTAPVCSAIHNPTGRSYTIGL
Chain of PRMT5 (Q9BQA1 whole entry partner): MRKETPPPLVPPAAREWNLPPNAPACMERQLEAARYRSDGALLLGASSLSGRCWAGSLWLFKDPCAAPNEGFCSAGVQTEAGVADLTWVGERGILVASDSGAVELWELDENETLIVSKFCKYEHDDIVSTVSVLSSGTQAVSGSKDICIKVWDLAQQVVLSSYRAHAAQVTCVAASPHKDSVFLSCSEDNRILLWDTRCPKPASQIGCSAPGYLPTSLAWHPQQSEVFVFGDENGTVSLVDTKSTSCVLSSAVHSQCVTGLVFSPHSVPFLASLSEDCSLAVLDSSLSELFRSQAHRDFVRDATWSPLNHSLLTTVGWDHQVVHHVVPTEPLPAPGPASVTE
Chain of Full-length (FL)-PRMT5-MEP50 enzyme complex (O14744 whole entry): as the sequence (O14744 whole entry) above
Chain of Full-length (FL)-PRMT5-MEP50 enzyme complex (Q9BQA1 whole entry partner): as the sequence (Q9BQA1 whole entry partner) above

Turning to `CC1(C)CN(C[C@H](O)[C@@H]2Cc3ccccc3CN2)C(=O)c2ccc(C(=O)N3[C@@H]4CC[C@H]3C[C@@H](O)C4)cc21` [Example 22, 2-((S)-2-hydroxy-2-((S)-1,2,3,4-tetrahydroisoquinolin-3-yl)ethyl)-6-((1R,3S,5S)-3-hydroxy-8-azabicyclo[3.2.1]octane-8-carbonyl)-4,4-dimethyl-3,4-dihydroisoquinolin-1(2H)-one], the IC50 in experiment [1] (setting [2]) was 50.1 nM; in experiment [1] (setting [3]), 15300 nM. On PRMT5 (setting [4]), the EC50 is 5280 nM.
On to `CO[C@H]1C[C@H]2CC[C@@H](C1)N2C(=O)c1ccc2c(c1)C(C)(C)CN(C[C@@H](O)[C@@H]1Cc3ccccc3CN1)C2=O` [Example 23, 2-((R)-2-hydroxy-2-((S)-1,2,3,4-tetrahydroisoquinolin-3-yl)ethyl)-6-((1R,3R,5S)-3-methoxy-8-azabicyclo[3.2.1]octane-8-carbonyl)-4,4-dimethyl-3,4-dihydroisoquinolin-1(2H)-one], for which the IC50 is 0.5 nM in experiment [1] (setting [2]) and 97.7 nM in experiment [1] (setting [3]). Besides, it took 2.14 nM to reach a half-maximal effect on PRMT5 (TE Assay EC50, MCF-7 cells) (EC50).
On to `CO[C@H]1C[C@H]2CC[C@@H](C1)N2C(=O)c1ccc2c(c1)C(C)(C)CN(C[C@H](O)[C@@H]1Cc3ccccc3CN1)C2=O` [Example 24, 2-((S)-2-hydroxy-2-((S)-1,2,3,4-tetrahydroisoquinolin-3-yl)ethyl)-6-((1R,3S,5S)-3-methoxy-8-azabicyclo[3.2.1]octane-8-carbonyl)-4,4-dimethyl-3,4-dihydroisoquinolin-1(2H)-one], for which the IC50 in experiment [1] (setting [2]) came out at 11.3 nM; in experiment [1] (setting [3]), 7500 nM. In addition, at PRMT5 (setting [4]), the concentration for a half-maximal effect (EC50) turned out to be 2640 nM.
As to `CO[C@@H]1C[C@H]2CC[C@@H](C1)N2C(=O)c1ccc2c(c1)C(C)(C)CN(C[C@@H](O)[C@@H]1Cc3ccccc3CN1)C2=O` [Example 25, 2-((R)-2-hydroxy-2-((S)-1,2,3,4-tetrahydroisoquinolin-3-yl)ethyl)-6-((1R,3S,5S)-3-methoxy-8-azabicyclo[3.2.1]octane-8-carbonyl)-4,4-dimethyl-3,4-dihydroisoquinolin-1(2H)-one], the IC50 in experiment [1] (setting [2]) came out at 0.44 nM; in experiment [1] (setting [3]) it was 50.1 nM. Also, a half-maximal response on PRMT5 (TE Assay EC50, MCF-7 cells) (EC50) required 3.81 nM.
With `CO[C@@H]1C[C@H]2CC[C@@H](C1)N2C(=O)c1ccc2c(c1)C(C)(C)CN(C[C@H](O)[C@@H]1Cc3ccccc3CN1)C2=O` [Example 26, 2-((S)-2-hydroxy-2-((S)-1,2,3,4-tetrahydroisoquinolin-3-yl)ethyl)-6-((1R,3R,5S)-3-methoxy-8-azabicyclo[3.2.1]octane-8-carbonyl)-4,4-dimethyl-3,4-dihydroisoquinolin-1(2H)-one], the IC50 in experiment [1] (setting [2]) was 24.3 nM; in experiment [1] (setting [3]) it was 14600 nM. In addition, at PRMT5 (setting [4]), the EC50 was determined as 4630 nM.
In the case of `CC1(C)CN(C[C@@H](O)[C@@H]2Cc3ccccc3CN2)C(=O)c2ccc(C(=O)N3C4COC5C4OCC53)cc21` [Example 27, 6-(hexahydro-3,6-epiminofuro[3,2-b]furan-7-carbonyl)-2-((R)-2-hydroxy-2-((S)-1,2,3,4-tetrahydroisoquinolin-3-yl)ethyl)-4,4-dimethyl-3,4-dihydroisoquinolin-1(2H)-one], the results for the IC50 in experiment [1] (setting [2]) and in experiment [1] (setting [3]) were 0.35 nM and 115 nM, respectively. The EC50 on PRMT5 (setting [4]) was determined as 18.6 nM.
For `CC1(C)CN(C[C@H](O)[C@@H]2Cc3ccccc3CN2)C(=O)c2ccc(C(=O)N3C4COC5C4OCC53)cc21` [Example 28, 6-(hexahydro-3,6-epiminofuro[3,2-b]furan-7-carbonyl)-2-((S)-2-hydroxy-2-((S)-1,2,3,4-tetrahydroisoquinolin-3-yl)ethyl)-4,4-dimethyl-3,4-dihydroisoquinolin-1(2H)-one], in that order: 34.3 nM, 34300 nM and no less than 10000 nM.
Regarding `CC1(C)CN(C[C@@H](O)[C@@H]2Cc3ccccc3CN2)C(=O)c2ccc(N3C(=O)C4CCC3CC4)cc21` [Example 29, 2-{(2R)-2-hydroxy-2-[(3S)-1,2,3,4-tetrahydroisoquinolin-3-yl]ethyl}-4,4-dimethyl-6-(3-oxo-2-azabicyclo[2.2.2]octan-2-yl)-3,4-dihydroisoquinolin-1(2H)-one], the IC50 in experiment [1] (setting [2]) was determined as 0.84 nM; in experiment [1] (setting [3]) it was 359 nM. Also, the EC50 on PRMT5 (setting [4]) came to 74.4 nM.
The like results for `O=C1c2ccc(C(=O)N3C4CCC3COC4)cc2CCN1CC(O)[C@@H]1Cc2ccccc2CN1` (stereo partly drawn) [Example 30, 2-{2-hydroxy-2-[(3S)-1,2,3,4-tetrahydroisoquinolin-3-yl]ethyl}-6-(3-oxa-8-azabicyclo[3.2.1]oct-8-ylcarbonyl)-3,4-dihydroisoquinolin-1(2H)-one] were, in that order, 16.6 nM, 6280 nM and 869 nM.

One may read the EC50 as the concentration that produces a half-maximal response.
